From patent US12274732B2, “Anti-pathogen composition and methods of use thereof” (Tenfold Technologies, LLC, priority 2017, dated 2025)
In brackets after ≈: the same amount, converted by molar mass. Like-named read-outs stand apart in the source and are kept apart here. Positions of bridges follow the written chain, without caps; N, C: chain ends. Non-standard residues stand in square brackets, D forms with d. Residues, ends and D or L forms follow the SMILES beside them. ξ: configuration not given here. *: point of attachment. Pentadecanoyl(3ξ-OH,15-Gua) = N=C(N)NCCCCCCCCCCCCC(O)CC(=O)*; d(aThr) = C[C@@H](O)[C@@H](N)C(=O)O

Key:
T. brucei = assay: In-vitro antiparasitic activity against T. brucei; type: cell-based
Protocol: (§1) The antimicrobial activities of identified fusaricidins were in an in vitro study against several clinically relevant microbes. […] For the in-vitro assays against bacteria, fusaricidins were tested against methicillin-resistant Staphylococcus aureus, vancomycin-resistant Enterococcus faecium, Escherichia coli, and Pseudomonas aeruginosa using four antibacterial drugs methicillin, vancomycin, cefotaxime, and meropenem as controls. […] Fusaricidins were also tested against fungal pathogens Cryptococcus neoformans, Candida albicans, and Aspergillus fumigatus and compared with two antifungal drugs, fluconazole and amphotericin B (Table 13). Moreover, the anti-parasitic activity was also tested against L. donovani and T. brucei (Table 14).

Candida albicans = assay: In vitro antimicrobial activity against Candida albicans; type: cell-based; details: for IC50: Candida albicans, read-out: C. albicans IC50
Protocol: (§2) Fifty organic extracts were prepared from 25 whole broth of four microbial strains (MS1479, MS2379, MS2820, and MS2414), which were fermented in different media for the antimicrobial testing. Note each whole broth culture generated one n-butanol extract from cultural supernatant and one methanol extract from cell pellets.
(§3) The antimicrobial activities of the 50 organic extracts were studied against three fungal pathogens—Candida albicans, Aspergillus fumigatus, and Cryptococcus neoformans—and five bacterial strains-Methicillin-resistant Staphylococcus aureus (MIRSA), Escherichia coli, Pseudomonas aeruginosa, Klebsiella pneumoniae, and Vancomycin-resistant Enterococcus faecium (VRE) (FIG. 2). The test concentrations for all extracts were in the range of 8-200 μg/mL (Table 3).
as §1

Aspergillus fumigatus = assay: In vitro antimicrobial activity against Aspergillus fumigatus; type: cell-based; details: for IC50: Aspergillus fumigatus, read-out: A. fumigatus IC50
Protocol: as §2, §3, §1

Cryptococcus neoformans = assay: In vitro antimicrobial activity against Cryptococcus neoformans; type: cell-based; details: for IC50: Cryptococcus neoformans, read-out: C. neoformans IC50
Protocol: as §2, §3
The potent activities against the fungal pathogen C. neoformans and the gram-positive bacteria S. aureus, MRSA, and M. intracellulare were also shown in the crude extracts (FIG. 7).
as §1

[1] = system: Methicillin-resistant Staphylococcus aureus (MRSA); assay: In vitro antimicrobial activity against MRSA; type: cell-based; details: for MIC: read-out: MRSA MIC (minimum inhibitory concentration)
Protocol: as §2, §3, §1

Escherichia coli = assay: In vitro antimicrobial activity against Escherichia coli; type: cell-based
Protocol: as §2, §3, §1

Pseudomonas aeruginosa = assay: In vitro antimicrobial activity against Pseudomonas aeruginosa; type: cell-based
Protocol: as §2, §3, §1

Klebsiella pneumoniae = assay: In vitro antimicrobial activity against Klebsiella pneumoniae; type: cell-based; details: for IC50: Klebsiella pneumoniae, read-out: K pneumoniae IC50
Protocol: as §2, §3

[2] = system: Vancomycin-resistant Enterococcus faecium (VRE); assay: In vitro antimicrobial activity against VRE; type: cell-based; details: for MIC: read-out: VRE MIC (minimum inhibitory concentration)
Protocol: as §2, §3, §1

L. donovani = assay: In-vitro antiparasitic activity against L. donovani; type: cell-based
Protocol: as §1

THP-1 = assay: Cytotoxicity against THP-1 cells (counter-screen of the antiparasitic assays); type: cell-based
Protocol: as §1

[3] = Heat stability of fusaricidins, whole broth autoclaved; type: physicochemical; details: fermentation whole broth autoclaved at 121.5° C. for 30 minutes
Protocol: In order to test the heat stability of fusaricidins, the fermentation whole broth was autoclaved at 121.5° C. for 30 minutes. Fusaricidin contents were analyzed before and after autoclave. Without being bound by a theory, fusaricidin A is heat stable because significant amounts of fusaricidin A were detected after the harsh heat treatment in most cases (FIG. 3B).

[4] = Table 5, extracts tested at 8-200 μg/mL
[5] = Table 12, highest test conc. fusaricidins 20, controls 100 μg/mL
[6] = Table 12, lowest concentration that allows no detectable growth
[7] = test conc. 200-8 μg/mL (extracts), 100-4 or 10-0.4 μg/mL (drugs)

NCCC[C@](N)(C(=O)O)C(F)F [α-Difluoromethylomithine]
T. brucei IC50 (T. brucei): 5.7 µg/mL
T. brucei IC90 (T. brucei; 90% inhibitory concentration): 6.6 µg/mL

C[C@@H]1[C@H](O)[C@@H](C)/C=C/C=C/C=C/C=C/C=C/C=C/C=C/[C@H](O[C@@H]2O[C@H](C)[C@@H](O)[C@H](N)[C@@H]2O)C[C@@H]2O[C@](O)(C[C@@H](O)C[C@@H](O)[C@H](O)CC[C@@H](O)C[C@@H](O)CC(=O)O[C@H]1C)C[C@H](O)[C@H]2C(=O)O [Amphotericin B]
C. albicans IC50 (Candida albicans; [4]): <0.1 µg/mL
C. albicans IC50 (50% growth inhibitory concentration) (Candida albicans; [5]): 0.4 µg/mL
C. albicans MIC (minimum inhibitory concentration) (Candida albicans; [6]): 0.8 µg/mL
C. albicans IC50 (Candida albicans; [7]): <0.1 µg/mL
A. fumigatus IC50 (Aspergillus fumigatus; [4]): 1.407 µg/mL
A. fumigatus IC50 (50% growth inhibitory concentration) (Aspergillus fumigatus; [5]): 2.4 µg/mL
A. fumigatus MIC (minimum inhibitory concentration) (Aspergillus fumigatus; [6]): 3.1 µg/mL
A. fumigatus IC50 (Aspergillus fumigatus; [7]): 1.407 µg/mL
IC50 against C. neoformans (Cryptococcus neoformans; Example 4, column fractions of MS2414 extract (FIG. 7)): 0.15 µg/mL (≈ 0.162 µM)
C. neoformans IC50 (Cryptococcus neoformans; [4]): 0.24 µg/mL
C. neoformans IC50 (50% growth inhibitory concentration) (Cryptococcus neoformans; [5]): 0.3 µg/mL
C. neoformans MIC (minimum inhibitory concentration) (Cryptococcus neoformans; [6]): 0.4 µg/mL
C. neoformans IC50 (Cryptococcus neoformans; [7]): 0.24 µg/mL
MRS IC50 [1, 4]: >100 µg/mL
MRS IC50 [1, 7]: >100 µg/mL
E. coli IC50 (Escherichia coli; [7]): >100 µg/mL
P. aeruginosa IC50 (Pseudomonas aeruginosa; [7]): >100 µg/mL
K pneumoniae IC50 (Klebsiella pneumoniae; [7]): >100 µg/mL
VRE IC50 [2, 4]: >100 µg/mL
VRE IC50 [2, 7]: >100 µg/mL
L. donovani Amastigote IC50 (L. donovani; amastigote): 0.9 µg/mL
L. donovani Amastigote/THP IC50 (L. donovani; amastigote/THP): 0.2/0.2 μg/mL
L. donovani Amastigote/THP IC90 (L. donovani; amastigote/THP, 90% inhibitory concentration): 0.2/0.2 μg/mL
L. donovani Amastigote IC90 (L. donovani; amastigote, 90% inhibitory concentration): 1.1 µg/mL
L. donovani Promastigote IC50 (L. donovani; promastigote): 0.3 µg/mL
L. donovani Promastigote IC90 (L. donovani; promastigote, 90% inhibitory concentration): 0.4 µg/mL
THP-1 IC50 (THP-1): >2/>2 μg/mL
THP-1 IC90 (THP-1; 90% inhibitory concentration): >2/>2 μg/mL

CN[C@H](CC(C)C)C(=O)N[C@H]1C(=O)N[C@@H](CC(N)=O)C(=O)N[C@H]2C(=O)N[C@H]3C(=O)N[C@H](C(=O)N[C@H](C(=O)O)c4cc(O)cc(O)c4-c4cc3ccc4O)[C@H](O)c3ccc(c(Cl)c3)Oc3cc2cc(c3O[C@@H]2O[C@H](CO)[C@@H](O)[C@H](O)[C@H]2O[C@H]2C[C@](C)(N)[C@H](O)[C@H](C)O2)Oc2ccc(cc2Cl)[C@H]1O [Vancomycin]
IC50 (Candida albicans): > 100 µg/mL
C. albicans IC50 (Candida albicans; [4]): >100 µg/mL
IC50 (Aspergillus fumigatus): > 100 µg/mL
A. fumigatus IC50 (Aspergillus fumigatus; [4]): >100 µg/mL
IC50 (Cryptococcus neoformans): > 100 µg/mL
C. neoformans IC50 (Cryptococcus neoformans; [4]): >100 µg/mL
IC50 ([1]; Staphylococcus aureus, ATCC 1708 / MRSA, read-out: MRSA IC50 (50% growth inhibitory concentration)): 1.3 µg/mL (≈ 0.897 µM)
MIC ([1]; Staphylococcus aureus, ATCC 1708 / MRSA): 1.6 µg/mL (≈ 1.1 µM)
IC50 ([1]; Staphylococcus aureus, MRSA, read-out: MRS IC50): 0.17 µg/mL (≈ 0.117 µM)
IC50 (Escherichia coli; Escherichia coli, ATCC2452, read-out: E. coli IC50 (50% growth inhibitory concentration)): 62.3 µg/mL (≈ 43 µM)
MIC (Escherichia coli; Escherichia coli, ATCC2452, read-out: E. coli MIC (minimum inhibitory concentration)): > 100 µg/mL
IC50 (Escherichia coli; Escherichia coli, read-out: E. coli IC50): 67.4 µg/mL (≈ 46.5 µM)
IC50 (Pseudomonas aeruginosa; Pseudomonas aeruginosa, ATCC2108, read-out: P. aeruginosa IC50 (50% growth inhibitory concentration)): > 100 µg/mL
MIC (Pseudomonas aeruginosa; Pseudomonas aeruginosa, ATCC2108, read-out: P. aeruginosa MIC (minimum inhibitory concentration)): > 100 µg/mL
IC50 (Pseudomonas aeruginosa; Pseudomonas aeruginosa, read-out: P. aeruginosa IC50): > 100 µg/mL
IC50 (Klebsiella pneumoniae): > 100 µg/mL
IC50 ([2]; Enterococcus faecium, ATCC 700221 / VRE, read-out: VRE IC50 (50% growth inhibitory concentration)): > 100 µg/mL
MIC ([2]; Enterococcus faecium, ATCC 700221 / VRE): > 100 µg/mL
VRE IC50 [2, 4]: >100 µg/mL
IC50 ([2]; read-out: VRE IC50): > 100 µg/mL

CC(C)[C@@H]1NC(=O)[C@@H](C(C)C)NC(=O)[C@@H](NC(=O)CC(O)CCCCCCCCCCCCNC(=N)N)[C@@H](C)OC(=O)[C@@H](C)NC(=O)[C@@H](CC(N)=O)NC(=O)[C@@H]([C@@H](C)O)NC1=O (stereo partly shown) [Fusaricidin A] ({Pentadecanoyl(3ξ-OH,15-Gua)}-T[dV]V[d(aThr)][dN][dA]; ester 1-C)
activity against MRSA (in words) [1]: strong activity
activity against VRE (in words) [2]: strong activity
heat stability [3]: heat stable

CO/N=C(\C(=O)N[C@@H]1C(=O)N2C(C(=O)O)=C(COC(C)=O)CS[C@H]12)c1csc(N)n1 [Cefotaxime]
IC50 (Candida albicans; [7]): > 100 µg/mL
C. albicans IC50 (Candida albicans; [4]): >100 µg/mL
IC50 (Aspergillus fumigatus; [7]): > 100 µg/mL
A. fumigatus IC50 (Aspergillus fumigatus; [4]): >100 µg/mL
IC50 (Cryptococcus neoformans; [7]): > 100 µg/mL
C. neoformans IC50 (Cryptococcus neoformans; [4]): >100 µg/mL
IC50 ([1]; ATCC 1708 / MRSA, Table 13, Methicillin-resistant Staphylococcus aureus ATCC 1708, read-out: MRSA IC50 (50% growth inhibitory concentration)): 15.6 µg/mL (≈ 34.3 µM)
MIC ([1]; ATCC 1708 / MRSA, Table 13, Methicillin-resistant Staphylococcus aureus ATCC 1708): 25 µg/mL (≈ 54.9 µM)
IC50 ([1]; Staphylococcus aureus, MRSA, test conc. 200-8 μg/mL (extracts), 100-4 or 10-0.4 μg/mL (drugs), read-out: MRS IC50): 14.8 µg/mL (≈ 32.5 µM)
IC50 (Escherichia coli; ATCC2452, Table 13, Escherichia coli ATCC 2452, read-out: E. coli IC50 (50% growth inhibitory concentration)): > 100 µg/mL
MIC (Escherichia coli; ATCC2452, Table 13, Escherichia coli ATCC 2452, read-out: E. coli MIC (minimum inhibitory concentration)): > 100 µg/mL
IC50 (Escherichia coli; Escherichia coli, test conc. 200-8 μg/mL (extracts), 100-4 or 10-0.4 μg/mL (drugs), read-out: E. coli IC50): 80.2 µg/mL (≈ 176 µM)
IC50 (Pseudomonas aeruginosa; ATCC2108, Table 13, Pseudomonas aeruginosa ATCC 2108, read-out: P. aeruginosa IC50 (50% growth inhibitory concentration)): 5.3 µg/mL (≈ 11.6 µM)
MIC (Pseudomonas aeruginosa; ATCC2108, Table 13, Pseudomonas aeruginosa ATCC 2108, read-out: P. aeruginosa MIC (minimum inhibitory concentration)): 25 µg/mL (≈ 54.9 µM)
IC50 (Pseudomonas aeruginosa; Pseudomonas aeruginosa, test conc. 200-8 μg/mL (extracts), 100-4 or 10-0.4 μg/mL (drugs), read-out: P. aeruginosa IC50): 11.8 µg/mL (≈ 26 µM)
IC50 (Klebsiella pneumoniae; [7]): > 100 µg/mL
IC50 ([2]; ATCC 700221 / VRE, Table 13, Vancomycin-resistant Enterococcus faecium ATCC 700221, read-out: VRE IC50 (50% growth inhibitory concentration)): > 100 µg/mL
MIC ([2]; ATCC 700221 / VRE, Table 13, Vancomycin-resistant Enterococcus faecium ATCC 700221): > 100 µg/mL
VRE IC50 [2, 4]: >100 µg/mL
IC50 ([2]; test conc. 200-8 μg/mL (extracts), 100-4 or 10-0.4 μg/mL (drugs), read-out: VRE IC50): > 100 µg/mL
